Assay results as given in patent US10451610B2, “Prediction of response to PARP inhibitors and combinational therapy targeting C-MET and PARP1” (Board of Regents, The University of Texas System, priority 2014, dated 2019).

Legend:
[1] = tested on: MDA-MB-231 cells; test: Cell viability assay; format: cell-based, human; settings: for sensitivity to PARP inhibitor, clonogenic cell survival and cell viability: c-Met knockdown vs control, cells expressing wild-type PARP1, FIGS. 3H, 13D-E; for sensitivity of cells to PARP inhibitors: MDA-MB-231, c-Met inhibitor with ABT-888 (cell viability) or AG014699 (clonogenic), FIGS. 2D-E, 8D
Method: Cells (1,500) were seeded in a 96-well plate and treated with the indicated inhibitors for 72 h. Then cells were incubated in fresh media with 100 μM resazurin for 1 h. Cell viability was measured by fluorescent plate readers at spectra of 560EX nm/590EM nm. Survival curves were expressed as mean±s.d. relative to DMSO-treated control from three independent experiments.
Cell growth was measured by cell viability, clonogenic cell survival, or soft agar anchorage-independent cell growth assay.

[2] = tested on: PARP1 Y907 phosphorylation; test: PARP1-pY907 staining of MDA-MB-231 xenograft tumor tissues; format: in vivo, nude mice; settings: tissues harvested within 24 h after last treatment; FIG. 4O
Method: All animal procedures were conducted under the approval of the Institutional Animal Care and Use Committee (IACUC) at MD Anderson Cancer Center (protocol number 10-14-07231). Female nude mice at 6-8 weeks of age were injected in their mammary fat pads with 0.5×10^6 MDA-MB-231 cells, 2×10^6 HCC1937 cells or 5×10^6 MCF-7 cells. Female FBV at 6-8 weeks of age were injected in their mammary fat pads with 0.5×10^6 A1034 cells. H1993 cells were injected subcutaneously into the right flank of female nude mice at 6-8 weeks of age. For MDA-MB-231 and A1034 cells xenograft mouse models, mice were imaged with the IVIS Imaging System 5 days after injection and were divided into treatment groups (n=10). […] After 2 weeks of treatment, tumor sizes were assessed using with the IVIS Imaging System. Mice were injected with 100 μl of D-luciferin (Xenogen; 15 mg/ml in PBS). After 10 min, mice were anesthetized with a mixture of oxygen and isoflurane (Inhalation Anesthesia System; Matrix Medical, Orchard Park, N.Y.) and underwent imaging with the IVIS Imaging System. Imaging parameters were maintained across experiments for comparative analyses. Tumor samples were collected after final treatment and analyzed by immunofluorescence staining. For toxicity assessment, mice were weighed before and after treatment. Blood samples were collected after treatment. […]

[3] = tested on: γH2AX foci formation in MDA-MB-231 cells; test: γH2AX foci formation by immunofluorescence confocal microscopy; format: cell-based, human; settings: c-Met inhibitor together with PARP inhibitor ABT-888; FIG. 3A
Method: Briefly, cells grown on chamber slides (Labtek, Scotts Valley, Calif.) were treated as described in the text. After washing with ice-cold PBS, cells were fixed, permeabilized, and incubated with primary antibodies and fluorescence-labeled secondary antibodies. Immunostained cells were examined using a Zeiss LSM 710 laser-scanning microscope (Carl Zeiss, Thornwood, N.Y.) with a 63×/1.4 objective. The ZEN and AxioVison (Carl Zeiss) and Image J software programs (National Institutes of Health, Bethesda, Md.) were used for data analysis. The mean±s.d. of fluorescence intensity of the indicated antibodies from five images in each treatment group was calculated.

[4] = tested on: phosphorylation of PARP1 at Y907; test: Western blot of H2O2-induced PARP1 pY907 in MDA-MB-231 cells; format: cell-based, human; settings: pre-treatment before H2O2; FIG. 3G
Method: For immunoprecipitation (IP), lysates of cells treated as described in the text were precleared with 1 μg of mouse or rabbit IgG and 20 μl of protein G-agarose (Roche, Indianapolis, Ind.) for 1 h at 4° C. Pre-cleared lysates were incubated with 1 μg of primary antibodies or anti-IgG antibody at 4° C. overnight with gentle agitation. Lysates were further incubated with protein G-agarose for 30 min at 4° C. Protein G-agarose pellets were collected and washed three times at 4° C. The immunoprecipitants were subjected to sodium dodecyl sulfate-polyacrylamide gel electrophoresis (SDS-PAGE) and western blot analysis as described previously (Du et al., 2014).

[5] = tested on: patients with wild-type BRCA; settings: cited from earlier work
[6] = tested on: patients with TNBC; settings: phase 2, combined with chemotherapy; cited from earlier work
[7] = tested on: patients with TNBC; settings: phase 3; cited from earlier work

SMILES	sensitivity to PARP inhibitor, clonogenic cell survival and cell viability [1]	phosphorylation of PARP1 at Y907 induced by H2O2 [4]	sensitivity of cells to PARP inhibitors [1]	other results
CNCc1ccc(-c2[nH]c3cc(F)cc4c3c2CCNC4=O)cc1 [AG014699, Rucaparib]	more sensitive	–	–	–
C[C@]1(c2nc3c(C(N)=O)cccc3[nH]2)CCCN1 [ABT-888, Veliparib]	more sensitive	–	–	–
C[C@@H](Oc1cc(-c2cnn(C3CCNCC3)c2)cnc1N)c1c(Cl)ccc(F)c1Cl [crizotinib]	–	abolished phosphorylation of PARP1 at Y907	enhanced the sensitivity of cells to PARP inhibitors	PARP1 Y907 phosphorylation in tumor tissue [2]: inhibited; γH2AX foci formation (marker of DNA damage) [3]: enhanced γH2AX foci formation
O=C(c1cc(Cc2n[nH]c(=O)c3ccccc23)ccc1F)N1CCN(C(=O)C2CC2)CC1 [olaparib]	–	–	–	clinical response [5]: demonstrated response
COc1cc2c(Oc3ccc(NC(=O)C4(C(=O)Nc5ccc(F)cc5)CC4)cc3F)ccnc2cc1OCCCN1CCOCC1 [foretinib]	–	abolished phosphorylation of PARP1 at Y907	enhanced the sensitivity of cells to PARP inhibitors	–
NC(=O)c1ccc(I)c([N+](=O)[O-])c1 [iniparib]	–	–	–	clinical benefit [6]: improved clinical benefits; overall survival or progression free survival benefit [7]: did not provide significant overall survival or progression free survival benefit
